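Each compound was tested at five concentrations against cells in 96-well plates for 48 hours. TGI marks complete inhibition of growth.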
Columns and labels:
Test in all cases: DTP human tumour cell line panel, 48 h
[1] = test system: NCI-H23 lung
[2] = test system: SW-620 colon
[3] = test system: OVCAR-8 ovarian
[4] = test system: SF-295 CNS
[5] = test system: UACC-257 melanoma
[6] = test system: UO-31 renal
[7] = test system: NCI-H522 lung
[8] = test system: U251 CNS
[9] = test system: LOX IMVI melanoma
[10] = test system: RXF 393 renal
[11] = test system: HCC-2998 colon
[12] = test system: HCT-15 colon
[13] = test system: KM12 colon
[14] = test system: SK-MEL-5 melanoma
[15] = test system: SF-268 CNS
[16] = test system: HS 578T breast
[17] = test system: CCRF-CEM leukemia
[18] = test system: MDA-MB-231 breast
[19] = test system: K-562 leukemia
[20] = test system: DU-145 prostate
[21] = test system: SNB-75 CNS
[22] = test system: NCI/ADR-RES ovarian
[23] = test system: HT29 colon
[24] = test system: MCF7 breast
[25] = test system: A549 NSCLC
[26] = test system: T-47D breast
[27] = test system: SN12C renal
[28] = test system: A498 renal
[29] = test system: PC-3 prostate
[30] = test system: COLO 205 colon
[31] = test system: MDA-MB-435
[32] = test system: MDA-N
[33] = test system: ACHN renal
[34] = test system: SK-MEL-28 melanoma
[35] = test system: HCT-116 colon
[36] = test system: M14 melanoma
[37] = test system: OVCAR-4 ovarian
[38] = test system: SNB-19 CNS
[39] = test system: SR leukemia
[40] = test system: SK-OV-3 ovarian
[41] = test system: HOP-92 NSCLC
[42] = test system: NCI-H226 lung
[43] = test system: NCI-H460 lung
[44] = test system: OVCAR-3 ovarian
[45] = test system: MOLT-4 leukemia
[46] = test system: TK-10 renal
[47] = test system: IGROV1 ovarian
[48] = test system: HL-60(TB) leukemia
[49] = test system: HOP-62 NSCLC
[50] = test system: SF-539 CNS
[51] = test system: MALME-3M melanoma
[52] = test system: UACC-62 melanoma
[53] = test system: 786-0 renal
[54] = test system: OVCAR-5 ovarian
[55] = test system: CAKI-1 renal
[56] = test system: EKVX NSCLC
[57] = test system: RPMI-8226 leukemia
[58] = test system: SK-MEL-2 melanoma

Nc1c(Br)cc2c(c1Br)Cc1cc(Br)ccc1-2
TGI [1]: > 100 µM | TGI [2]: > 100 µM | TGI [3]: > 100 µM | TGI [4]: > 100 µM | TGI [5]: > 100 µM | TGI [6]: > 100 µM | TGI [7]: > 100 µM | TGI [8]: > 100 µM | TGI [9]: > 100 µM | TGI [10]: > 100 µM | TGI [11]: > 100 µM | TGI [12]: > 100 µM | TGI [13]: > 100 µM | TGI [14]: > 100 µM | TGI [15]: > 100 µM | TGI [16]: > 100 µM | TGI [17]: > 100 µM | TGI [18]: > 100 µM | TGI [19]: > 100 µM | TGI [20]: > 100 µM | TGI [21]: > 100 µM | TGI [22]: > 100 µM | TGI [23]: > 100 µM | TGI [24]: > 100 µM | TGI [25]: > 100 µM | TGI [26]: > 100 µM | TGI [27]: > 100 µM | TGI [28]: > 100 µM | TGI [29]: > 100 µM | TGI [30]: > 100 µM | TGI [31]: > 100 µM | TGI [32]: > 100 µM | TGI [33]: > 100 µM | TGI [34]: > 100 µM | TGI [35]: > 100 µM | TGI [36]: > 100 µM | TGI [37]: > 100 µM | TGI [38]: > 100 µM | TGI [39]: > 100 µM | TGI [40]: > 100 µM | TGI [41]: > 100 µM | TGI [42]: > 100 µM | TGI [43]: > 100 µM | TGI [44]: > 100 µM | TGI [45]: > 100 µM | TGI [46]: > 100 µM

O=C(CCC(C(=O)OCc1ccccc1)C(=O)OCc1ccccc1)Nc1ccc(OCc2ccccc2)cc1
TGI [1]: > 100 µM | TGI [47]: > 100 µM | TGI [2]: > 100 µM | TGI [3]: 34 µM | TGI [4]: > 100 µM | TGI [48]: > 100 µM | TGI [5]: > 100 µM | TGI [6]: > 100 µM | TGI [7]: > 100 µM | TGI [8]: > 100 µM | TGI [9]: > 100 µM | TGI [10]: > 100 µM | TGI [11]: > 100 µM | TGI [12]: 79.4 µM | TGI [13]: > 100 µM | TGI [15]: > 100 µM | TGI [49]: > 100 µM | TGI [16]: > 100 µM | TGI [17]: > 100 µM | TGI [18]: > 100 µM | TGI [50]: > 100 µM | TGI [19]: > 100 µM | TGI [51]: > 100 µM | TGI [52]: > 100 µM | TGI [53]: 32.2 µM | TGI [20]: > 100 µM | TGI [54]: > 100 µM | TGI [21]: > 100 µM | TGI [22]: > 100 µM | TGI [23]: > 100 µM | TGI [24]: 32.8 µM | TGI [25]: > 100 µM | TGI [26]: > 100 µM | TGI [27]: > 100 µM | TGI [28]: > 100 µM | TGI [29]: 47.2 µM | TGI [30]: > 100 µM | TGI [31]: > 100 µM | TGI [55]: > 100 µM | TGI [32]: > 100 µM | TGI [33]: > 100 µM | TGI [34]: > 100 µM | TGI [35]: 27.3 µM | TGI [36]: > 100 µM | TGI [37]: > 100 µM | TGI [38]: > 100 µM | TGI [39]: > 100 µM | TGI [56]: > 100 µM | TGI [40]: > 100 µM | TGI [41]: > 100 µM | TGI [42]: > 100 µM | TGI [43]: > 100 µM | TGI [44]: > 100 µM | TGI [45]: > 100 µM | TGI [46]: > 100 µM

N#C/C(C(=O)Nc1ccccc1)=C(/N)N1CCCC1
TGI [1]: > 100 µM | TGI [47]: > 100 µM | TGI [2]: > 100 µM | TGI [3]: > 100 µM | TGI [4]: > 100 µM | TGI [48]: > 100 µM | TGI [5]: > 100 µM | TGI [6]: > 100 µM | TGI [7]: > 100 µM | TGI [8]: > 100 µM | TGI [9]: > 100 µM | TGI [10]: > 100 µM | TGI [11]: > 100 µM | TGI [12]: > 100 µM | TGI [13]: > 100 µM | TGI [14]: > 100 µM | TGI [15]: > 100 µM | TGI [49]: > 100 µM | TGI [16]: > 100 µM | TGI [57]: > 100 µM | TGI [17]: > 100 µM | TGI [18]: > 100 µM | TGI [50]: > 100 µM | TGI [19]: > 100 µM | TGI [51]: > 100 µM | TGI [52]: > 100 µM | TGI [53]: > 100 µM | TGI [20]: > 100 µM | TGI [54]: > 100 µM | TGI [22]: > 100 µM | TGI [23]: > 100 µM | TGI [25]: > 100 µM | TGI [26]: > 100 µM | TGI [27]: > 100 µM | TGI [28]: > 100 µM | TGI [29]: > 100 µM | TGI [30]: > 100 µM | TGI [31]: > 100 µM | TGI [55]: > 100 µM | TGI [32]: > 100 µM | TGI [33]: > 100 µM | TGI [34]: > 100 µM | TGI [35]: > 100 µM | TGI [36]: > 100 µM | TGI [37]: > 100 µM | TGI [38]: > 100 µM | TGI [39]: > 100 µM | TGI [56]: > 100 µM | TGI [40]: > 100 µM | TGI [41]: > 100 µM | TGI [42]: > 100 µM | TGI [43]: > 100 µM | TGI [44]: > 100 µM | TGI [45]: > 100 µM | TGI [46]: > 100 µM | TGI [58]: > 100 µM

COC(=O)Cc1cccc2c1CCC2=O
TGI [1]: > 100 µM | TGI [47]: > 100 µM | TGI [2]: > 100 µM | TGI [3]: > 100 µM | TGI [4]: > 100 µM | TGI [48]: > 100 µM | TGI [5]: > 100 µM | TGI [6]: > 100 µM | TGI [7]: > 100 µM | TGI [8]: > 100 µM | TGI [9]: > 100 µM | TGI [10]: > 100 µM | TGI [11]: > 100 µM | TGI [12]: > 100 µM | TGI [13]: > 100 µM | TGI [14]: > 100 µM | TGI [15]: > 100 µM | TGI [49]: > 100 µM | TGI [16]: > 100 µM | TGI [57]: > 100 µM | TGI [17]: > 100 µM | TGI [18]: > 100 µM | TGI [50]: > 100 µM | TGI [19]: > 100 µM | TGI [51]: > 100 µM | TGI [52]: > 100 µM | TGI [53]: > 100 µM | TGI [20]: > 100 µM | TGI [54]: > 100 µM | TGI [21]: > 100 µM | TGI [22]: > 100 µM | TGI [23]: > 100 µM | TGI [24]: > 100 µM | TGI [25]: > 100 µM | TGI [26]: > 100 µM | TGI [27]: > 100 µM | TGI [28]: > 100 µM | TGI [29]: > 100 µM | TGI [30]: > 100 µM | TGI [31]: > 100 µM | TGI [32]: > 100 µM | TGI [33]: > 100 µM | TGI [34]: > 100 µM | TGI [35]: > 100 µM | TGI [36]: > 100 µM | TGI [37]: > 100 µM | TGI [38]: > 100 µM | TGI [39]: > 100 µM | TGI [56]: > 100 µM | TGI [40]: > 100 µM | TGI [41]: > 100 µM | TGI [42]: > 100 µM | TGI [43]: > 100 µM | TGI [44]: > 100 µM | TGI [45]: > 100 µM | TGI [46]: > 100 µM

O=C(Nc1ccccn1)/C(=C\C(=O)c1ccc(Cl)cc1)Nc1ccccc1
TGI [1]: > 10 µM | TGI [47]: > 10 µM | TGI [2]: > 10 µM | TGI [3]: > 10 µM | TGI [4]: > 10 µM | TGI [48]: > 10 µM | TGI [5]: > 10 µM | TGI [9]: > 10 µM | TGI [10]: > 10 µM | TGI [11]: > 10 µM | TGI [12]: > 10 µM | TGI [13]: > 10 µM | TGI [14]: > 10 µM | TGI [15]: > 10 µM | TGI [49]: > 10 µM | TGI [57]: > 10 µM | TGI [17]: > 10 µM | TGI [18]: > 10 µM | TGI [19]: > 10 µM | TGI [51]: > 10 µM | TGI [52]: > 10 µM | TGI [53]: > 10 µM | TGI [20]: > 10 µM | TGI [21]: > 10 µM | TGI [23]: > 10 µM | TGI [24]: > 10 µM | TGI [25]: > 10 µM | TGI [26]: > 10 µM | TGI [27]: > 10 µM | TGI [29]: > 10 µM | TGI [30]: > 10 µM | TGI [31]: > 10 µM | TGI [55]: > 10 µM | TGI [32]: > 10 µM | TGI [34]: > 10 µM | TGI [36]: > 10 µM | TGI [37]: > 10 µM | TGI [39]: > 10 µM | TGI [56]: > 10 µM | TGI [40]: > 10 µM | TGI [41]: > 10 µM | TGI [45]: > 10 µM | TGI [46]: > 10 µM

Reference: PubChem BioAssay (NCI)
